The numbers were not newly measured in US7655753B2, “Conjugate” (PhotoBiotics Limited, priority 2001, dated 2010), which cites them from elsewhere.

Series [1] relates to Barrett's oesophagus cancer. The following applies: clinical PDT, systemic administration.
The test system of series [2] is Basal cell cancer of skin. The following applies: clinical PDT, topical administration.
A further series concerns Oral cancer. The following applies: clinical PDT, over 5-53 months.
In series [3] the test system is Chest wall recurrence in breast cancer. The following applies: clinical PDT.
Another series relates to Bladder cancer. The note with it: clinical PDT.
The next series has as its system Barrett's mucosal cancer. The following applies: clinical PDT.

As to `NCC(=O)CCC(=O)O` [ALA, 5-aminolaevulanic acid], the High-grade dysplasia outcome in series [1] is on record as “eradicated in all patients”. Also, the complete response in series [2] is reported as 90% complete response.
For the molecule `Oc1cccc(-c2c3nc(c(-c4cccc(O)c4)c4ccc([nH]4)c(-c4cccc(O)c4)c4nc(c(-c5cccc(O)c5)c5ccc2[nH]5)CC4)C=C3)c1` [Foscan, meta-tetrahydroxyphenyl chlorin], the “skin photosensitivity (duration)” value (in vivo) was “about 2 weeks”.
With Dihematoporphyrin ether, the complete response with Oral cancer is on record as 87% complete response. Besides, in series [3], the complete response was 20% complete response, and the partial response is on record as 45% partial response.
As to Hematoporphyrin derivative, in the series with Bladder cancer, the “alive after 5 years” value is reported as 30% alive after 5 years and the complete response was 74% complete response,.
Take porfimer sodium: for the setting “leading to skin photosensitivity”, the “persistence in the body” value was “weeks”. Further, in the series on Barrett's mucosal cancer, the “conversion to normal epithelium” value is 75% conversion to and the tumour outcome was “tumours eliminated”.
